Key:
[1] = target: T1, Amine oxidase [flavin-containing] B (Homo sapiens, UniProt P27338); experiment: biochemical; format: cell-based, BTI-TN-5B1-4
T1 sequence (P27338 whole entry): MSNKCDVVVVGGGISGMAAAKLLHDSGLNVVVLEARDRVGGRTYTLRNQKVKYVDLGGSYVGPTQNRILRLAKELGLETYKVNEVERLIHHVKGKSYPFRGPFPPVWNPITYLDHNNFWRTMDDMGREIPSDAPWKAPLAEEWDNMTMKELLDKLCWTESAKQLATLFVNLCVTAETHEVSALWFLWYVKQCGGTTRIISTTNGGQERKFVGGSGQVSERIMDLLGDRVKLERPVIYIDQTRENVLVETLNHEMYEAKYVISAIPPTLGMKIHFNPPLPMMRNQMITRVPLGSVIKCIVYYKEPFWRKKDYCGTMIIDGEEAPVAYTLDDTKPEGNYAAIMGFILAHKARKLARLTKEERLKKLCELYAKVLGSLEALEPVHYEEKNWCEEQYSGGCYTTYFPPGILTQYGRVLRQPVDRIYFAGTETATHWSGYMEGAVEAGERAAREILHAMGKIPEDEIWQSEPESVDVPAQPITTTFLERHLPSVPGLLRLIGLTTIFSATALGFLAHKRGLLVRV
Description: Inhibition of human MAO-B expressed in baculovirus infected BTI-TN-5B1-4 insect cells using p-tyramine as substrate assessed as hydrogen peroxide production by fluorimetric method

[2] = target: T2, Amine oxidase [flavin-containing] A (Homo sapiens, UniProt P21397); experiment: Inhibition of human MAO-A expressed in baculovirus infected BTI-TN-5B1-4 insect cells using p-tyramine as substrate assessed as hydrogen peroxide production by fluorimetric method
T2 sequence (P21397 whole entry): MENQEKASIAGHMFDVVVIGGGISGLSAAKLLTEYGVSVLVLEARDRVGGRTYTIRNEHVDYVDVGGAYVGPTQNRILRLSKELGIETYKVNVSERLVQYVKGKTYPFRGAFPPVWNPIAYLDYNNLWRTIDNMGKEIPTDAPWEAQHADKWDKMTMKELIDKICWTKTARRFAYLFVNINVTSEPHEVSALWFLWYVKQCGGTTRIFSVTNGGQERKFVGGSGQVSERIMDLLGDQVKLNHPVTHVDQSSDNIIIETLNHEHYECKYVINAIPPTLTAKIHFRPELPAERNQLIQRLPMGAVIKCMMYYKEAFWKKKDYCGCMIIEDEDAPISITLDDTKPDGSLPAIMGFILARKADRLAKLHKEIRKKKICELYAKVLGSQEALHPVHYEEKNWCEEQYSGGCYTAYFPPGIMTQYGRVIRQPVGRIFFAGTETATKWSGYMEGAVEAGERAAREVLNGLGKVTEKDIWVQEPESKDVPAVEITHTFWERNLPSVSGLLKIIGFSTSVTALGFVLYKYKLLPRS

Homo sapiens = species on record: Homo sapiens; experiment: Selectivity index, ratio of IC50 for human MAO-B to IC50 for human MAO-A
[3] = target: T1, Amine oxidase [flavin-containing] B; experiment: Inhibition of human MAO-B expressed in baculovirus infected BTI-TN-5B1-4 insect cells using p-tyramine as substrate assessed as hydrogen peroxide production at 100 uM by fluorimetric method; details: BTI-TN-5B1-4, human
[4] = target: T2, Amine oxidase [flavin-containing] A; experiment: Inhibition of human MAO-A expressed in baculovirus infected BTI-TN-5B1-4 insect cells using p-tyramine as substrate assessed as hydrogen peroxide production at 100 uM by fluorimetric method; details: BTI-TN-5B1-4, human
[5] = target: T1, Amine oxidase [flavin-containing] B; experiment: Inhibition of human MAO-B expressed in baculovirus infected BTI-TN-5B1-4 insect cells using p-tyramine as substrate assessed as hydrogen peroxide production at 1 mM by fluorimetric method; details: bti-tn-5b1-4, 1000 µM

Row | Structure (SMILES) | IC50 [1] [µM] | IC50 [2] [µM] | Ratio IC50 (Homo sapiens) | IC50 ([1]; bti-tn-5b1-4) [µM] | IC50 ([2]; bti-tn-5b1-4) [µM] | inhibition at 100 µM [3] [%] | inhibition at 100 µM [4] [%] | inhibition (INH) [5]
1 | Cc1sc(N/N=C/c2ccncc2)nc1-c1ccccc1 | 1.37 | 8.29 | 0.16 |  |  |  |  | 
2 | C=CCC/C(C)=N\Nc1nc(-c2ccccc2)c(C)s1 | 8.85 | 6.97 | 1.27 |  |  |  |  | 
3 | C(=N\Nc1nc(-c2ccc3ccccc3c2)cs1)/c1cccnc1 | 4.76 | 2.57 | 1.85 |  |  |  |  | 
4 | Cc1sc(NN=C2CCC(C)CC2)nc1-c1ccccc1 (configuration not stated) |  |  | 0.66 | 2.52 | 3.9 |  |  | 
5 | CCCCC/C(C)=N\Nc1nc(-c2ccccc2)c(C)s1 | 6 | 3.69 | 1.64 |  |  |  |  | 
6 | C/C(=N\Nc1nc(-c2ccc3ccccc3c2)cs1)c1ccc2ccccc2c1 |  |  |  |  |  | 40 | 40 | 
7 | C/C(=N\Nc1nc(-c2ccc3ccccc3c2)cs1)c1cccs1 | 14.5 | 3.73 | 3.85 |  |  |  |  | 
8 | C(=N\Nc1nc(-c2ccc3ccccc3c2)cs1)/c1cccc2ccccc12 | 22.9 | 16.4 | 1.41 |  |  |  |  | 
9 | C(=N\Nc1nc(-c2ccc3ccccc3c2)cs1)/c1ccncc1 | 7.48 | 8.67 | 0.83 |  |  |  |  | 
10 | C/C(=N\Nc1nc(-c2ccccc2)c(C)s1)c1cccs1 | 2.34 | 2.67 | 0.9 |  |  |  |  | 
11 | Cc1sc(N/N=C/c2c[nH]c3ccccc23)nc1-c1ccccc1 | 1.4 | 3.12 | 0.45 |  |  |  |  | 
12 | C/C(=N\Nc1nc(-c2ccc3ccccc3c2)cs1)C1CCCCC1 |  | 6.95 | > 14.3 |  |  | 40 |  | 
13 | C/C(=N\Nc1nc(-c2ccccc2)c(C)s1)C1CCCCC1 | 6.14 | 7.65 | 0.83 |  |  |  |  | 
14 | Cc1sc(N/N=C/c2ccc3c(c2)OCO3)nc1-c1ccccc1 | 6.57 | 8.63 | 0.76 |  |  |  |  | 
15 | CC(C)=NNc1nc(-c2ccccc2)c(C)s1 | 5.28 | 2.55 | 2.08 |  |  |  |  | 
16 | Cc1sc(NN=C2CCCCCCC2)nc1-c1ccccc1 | 2.31 | 7.07 | 0.32 |  |  |  |  | 

Row | Structure (SMILES) | IC50 [1] [µM] | IC50 [2] [µM] | Ratio IC50 (Homo sapiens) | IC50 ([1]; bti-tn-5b1-4) [µM] | IC50 ([2]; bti-tn-5b1-4) [µM] | inhibition at 100 µM [3] [%] | inhibition at 100 µM [4] [%] | inhibition (INH) [5]
17 | CCCCCC/C(C)=N\Nc1nc(-c2ccccc2)c(C)s1 | 3.75 | 3.91 | 1.04 |  |  |  |  | 
18 | O=C(NCCN1CCOCC1)c1ccc(Cl)cc1 [MOCLOBEMIDE] |  |  |  |  |  |  |  | Not Active
19 | C/C(=N\Nc1nc(-c2ccccc2)c(C)s1)c1cc2ccccc2oc1=O | 3.02 | 9.18 | 0.33 |  |  |  |  | 
20 | Cc1sc(N/N=C2\CCCC(C)C2)nc1-c1ccccc1 (configuration not stated) | 2.88 | 3.63 | 0.76 |  |  |  |  | 
21 | Cc1sc(N/N=C/c2cccc3ccccc23)nc1-c1ccccc1 |  |  |  |  |  | 40 | 40 | 
22 | C/C(=N\Nc1nc(-c2ccccc2)c(C)s1)c1ccc2ccccc2c1 |  |  |  |  |  | 40 | 40 | 
23 | Cc1sc(N/N=C/c2cccs2)nc1-c1ccccc1 | 3.05 | 3.38 | 0.9 |  |  |  |  | 
24 | CC1CCC/C1=N\Nc1nc(-c2ccc3ccccc3c2)cs1 (configuration not stated) | 2.88 | 2.6 | 1.11 |  |  |  |  | 
25 | C(=N\Nc1nc(-c2ccc3ccccc3c2)cs1)/c1ccc2c(c1)OCO2 |  | 5.92 | > 16.7 |  |  | 40 |  | 
26 | C(=N\Nc1nc(-c2ccc3ccccc3c2)cs1)/c1cccs1 | 4.63 | 2.71 | 1.72 |  |  |  |  | 
27 | C/C(=N\Nc1nc(-c2ccc3ccccc3c2)cs1)c1cc2ccccc2oc1=O | 10.8 | 6.47 | 1.67 |  |  |  |  | 
28 | C/C(=N\Nc1nc(-c2ccccc2)c(C)s1)c1nccs1 | 0.28 | 6.52 | 0.043 |  |  |  |  | 
29 | CCCCCC/C(C)=N\Nc1nc(-c2ccc3ccccc3c2)cs1 |  | 15.8 | > 6.25 |  |  | 40 |  | 
30 | CCCC/C(CC)=N\Nc1nc(-c2ccc3ccccc3c2)cs1 | 3.76 | 2.93 | 1.28 |  |  |  |  | 
31 | CCCC/C(CC)=N\Nc1nc(-c2ccccc2)c(C)s1 | 4.78 | 4.13 | 1.16 |  |  |  |  | 
32 | Cc1sc(N/N=C2\CCCCC2C)nc1-c1ccccc1 (configuration not stated) | 1.11 | 3.23 | 0.34 |  |  |  |  | 

Next, values leading:

Row | IC50 [1] [µM] | IC50 [2] [µM] | Ratio IC50 (Homo sapiens) | IC50 ([1]; bti-tn-5b1-4) [µM] | IC50 ([2]; bti-tn-5b1-4) [µM] | inhibition at 100 µM [3] [%] | inhibition at 100 µM [4] [%] | inhibition (INH) [5] | Structure (SMILES)
33 | 2.29 | 1.77 | 1.3 |  |  |  |  |  | C/C(=N\Nc1nc(-c2ccc3ccccc3c2)cs1)c1ccco1
34 | 2.22 | 1.83 | 1.22 |  |  |  |  |  | Cc1sc(N/N=C/c2cccnc2)nc1-c1ccccc1
35 | 2.32 | 1.86 | 1.25 |  |  |  |  |  | CCC(CC)=NNc1nc(-c2ccc3ccccc3c2)cs1
36 | 3.11 | 1.81 | 1.72 |  |  |  |  |  | CCC/C(C)=N\Nc1nc(-c2ccc3ccccc3c2)cs1
37 | 2.23 | 2.24 | 1 |  |  |  |  |  | C/C(=N\Nc1nc(-c2ccccc2)c(C)s1)c1ccccc1
38 | 0.88 | 2.39 | 0.37 |  |  |  |  |  | C/C(=N\Nc1nc(-c2ccccc2)c(C)s1)c1ccccn1
39 | 16 | 2.45 | 6.67 |  |  |  |  |  | CCCCC/C(C)=N\Nc1nc(-c2ccc3ccccc3c2)cs1
40 | 2.78 | 2.4 | 1.16 |  |  |  |  |  | C/C(CC(C)C)=N/Nc1nc(-c2ccccc2)c(C)s1
41 | 2.31 | 2.29 | 1.01 |  |  |  |  |  | Cc1sc(N/N=C2\CCC(C)C2)nc1-c1ccccc1 (configuration not stated)
42 | 3.55 | 1.56 | 2.27 |  |  |  |  |  | CC(C)=NNc1nc(-c2ccc3ccccc3c2)cs1
43 | 1.33 | 2.44 | 0.56 |  |  |  |  |  | Cc1sc(N/N=C2\CCCC2C)nc1-c1ccccc1 (configuration not stated)
44 | 2.45 | 1.65 | 1.49 |  |  |  |  |  | CCC(CC)=NNc1nc(-c2ccccc2)c(C)s1
45 | 5.99 | 2.34 | 2.56 |  |  |  |  |  | C(=N\Nc1nc(-c2ccc3ccccc3c2)cs1)/c1c[nH]c2ccccc12
46 | 1.79 | 1.78 | 1.01 |  |  |  |  |  | Cc1sc(NN=C2CCCCC2)nc1-c1ccccc1
47 | 1.96 | 2.11 | 0.9 |  |  |  |  |  | Cc1sc(NN=C2CCCCCC2)nc1-c1ccccc1
48 | 2.31 | 2.52 | 0.9 |  |  |  |  |  | CCC/C(C)=N\Nc1nc(-c2ccccc2)c(C)s1
49 | 2.76 | 2.04 | 1.35 |  |  |  |  |  | C(=N\Nc1nc(-c2ccc3ccccc3c2)cs1)/c1ccco1
50 | 6.23 | 2 | 3.13 |  |  |  |  |  | C/C(=N\Nc1nc(-c2ccc3ccccc3c2)cs1)c1ccccc1
51 | 2.65 | 1.74 | 1.52 |  |  |  |  |  | CC/C(C)=N\Nc1nc(-c2ccc3ccccc3c2)cs1
52 | 2.1 | 1.68 | 1.25 |  |  |  |  |  | C/C(=N\Nc1nc(-c2ccccc2)c(C)s1)c1ccco1
53 | 10.8 | 1.94 | 5.56 |  |  |  |  |  | CC1CCC/C(=N\Nc2nc(-c3ccc4ccccc4c3)cs2)C1 (configuration not stated)
54 | 3.56 | 2.31 | 1.54 |  |  |  |  |  | C/C(CC(C)C)=N/Nc1nc(-c2ccc3ccccc3c2)cs1
55 | 3.94 | 1.37 | 2.86 |  |  |  |  |  | C=CCC/C(C)=N\Nc1nc(-c2ccc3ccccc3c2)cs1
56 | 3.06 | 1.79 | 1.72 |  |  |  |  |  | Cc1sc(N/N=C/c2ccco2)nc1-c1ccccc1
57 | 1.53 | 1.55 | 1 |  |  |  |  |  | CC/C(C)=N\Nc1nc(-c2ccccc2)c(C)s1
58 | 3.49 | 1.91 | 1.82 |  |  |  |  |  | CC1CC/C(=N\Nc2nc(-c3ccc4ccccc4c3)cs2)C1 (configuration not stated)
59 | 1.41 | 0.55 | 2.56 |  |  |  |  |  | Cc1sc(NN=C2CCCC2)nc1-c1ccccc1

— ChEMBL document CHEMBL3217581, “Synthesis and selective inhibition of human monoamine oxidases of a large scaffold of (4,5-substituted-thiazol-2-yl)hydrazones” (Medchemcomm, 2010)
